Measured values published in patent US20220267258A1, “ROBENIDINE ANALOGS AS POTENT ANTIMALARIALS AGAINST DRUG-RESISTANT PLASMODIUM FALCIPARUM” (OREGON HEALTH & SCIENCE UNIVERSITY, priority 2021, published 2022).
Like-named read-outs stand apart in the source and are kept apart here.

Tests used:
[1] = tested on: P. falciparum strain D6; experiment: SYBR Green growth inhibition assay, P. falciparum D6; type: cell-based, Plasmodium falciparum; conditions: read-out: IC50 D6
Procedure: (§1) The in vitro activity of each compound in the aminoguanidine library was assessed against asynchronous cultures of Plasmodium falciparum parasites replicating within human erythrocytes (Tables 1-3). As the chemical development of robenidine was not discussed in its original publication in 1970^4 and limited structural information is available regarding its mechanism of action,^10 profiling was guided primarily by in vitro potency against the P. falciparum D6 strain cultured in human erythrocytes as described above.
(§2) The following parasite strains were used in this study and obtained through BEI Resources, NIAID, NIH. […] The culture medium used was RPMI-1640, supplemented with 25 mM HEPES buffer, 25 mg/L gentamicin sulfate, 45 mg/L hypoxanthine, 10 mM glucose, 2 mM glutamine, and 0.5% Albumax II (complete medium).^43 Cultures were maintained in a standard low oxygen atmosphere (5% O2, 5% CO2, 90% N2) in an environmental chamber and incubated at 37° C. Cultures were sub-passaged every 3-4 days into a fresh culture flask containing complete media and erythrocytes.
(§3) The aminoguanidine series was assessed for in vitro antiplasmodial activity using the fluorescence-based SYBR Green assay described previously by Smilkstein and co-workers.^38 Compounds were evaluated in quadruplicate in flat-bottomed Costar clear 96-well plates (Model #3585). A two-fold serial dilution of each compound was performed across the columns of the test plates starting with 20 μM and ending with a final untreated column to serve as control wells. Asynchronous parasite infected erythrocytes in growth media were added to each well for a total volume of 100 μL, final hematocrit of 2%, and initial parasitemia of 0.2%. […] Test plates were incubated for 72 hr at 37° C. in an environmental chamber with a controlled low oxygen atmosphere (5% O2, 5% CO2, 90% N2). After the incubation period, 100 μL SYBR Green I dye-detergent solution was added to each well, and the plates were incubated at ambient temperature and atmosphere in the dark for at least one hour. Fluorescence was read at 497 nm excitation and 520 nm emission bands using a Spectramax iD3 plate reader. Fluorescence readings were normalized with respect to the untreated control wells representing normal parasite growth and plotted against the logarithm of drug concentration.

[2] = tested on: P. falciparum A6; experiment: SYBR Green growth inhibition assay, P. falciparum A6; type: cell-based, Plasmodium falciparum; conditions: read-out: IC50 A6
Procedure: (§4) In addition to the drug-sensitive P. falciparum D6 strain, the aminoguanidines were assessed against three drug-resistant strains (Tables 1-3).
as §2
(§5) The aminoguanidine series was assessed for in vitro antiplasmodial activity using the fluorescence-based SYBR Green assay described previously by Smilkstein and co-workers.^38 Compounds were evaluated in quadruplicate in flat-bottomed Costar clear 96-well plates (Model #3585). A two-fold serial dilution of each compound was performed across the columns of the test plates starting with 20 μM and ending with a final untreated column to serve as control wells. Asynchronous parasite infected erythrocytes in growth media were added to each well for a total volume of 100 μL, final hematocrit of 2%, and initial parasitemia of 0.2%. The commercial malaria drugs atovaquone and chloroquine were used as control drugs. Test plates were incubated for 72 hr at 37° C. in an environmental chamber with a controlled low oxygen atmosphere (5% O2, 5% CO2, 90% N2). After the incubation period, 100 μL SYBR Green I dye-detergent solution was added to each well, and the plates were incubated at ambient temperature and atmosphere in the dark for at least one hour. Fluorescence was read at 497 nm excitation and 520 nm emission bands using a Spectramax iD3 plate reader. Fluorescence readings were normalized with respect to the untreated control wells representing normal parasite growth and plotted against the logarithm of drug concentration.

[3] = tested on: Plasmodium yoelii; experiment: modified 4-day Peters test, murine malaria; type: in vivo, mice; conditions: for cure in this model: 4-day oral dosing, 0% parasitemia at day 30; for P. yoelii ED90 / P. yoelii ED50: oral gavage days 1-4, parasitemia day 5; for P. yoelii NRD (non-recrudescence dose, cure dose): oral, doses up to 25 mg/kg/day, no parasites at day 30
Procedure: In this modified 4-day Peters test,^41 mice were inoculated with parasites from a donor mouse (day 0), and then dosed orally with drugs on each of the subsequent four days (days 1-4). On day 5 of the experiment, the parasitemia for each mouse was determined microscopically by examining methanol-fixed and Giemsa-stained blood smears. The ED50 represents the interpolated dose of a compound at which parasitemia was suppressed to one half that of untreated controls. Similarly, the ED90 represents the dose at which parasitemia is suppressed ten-fold. Mice were considered cured of their infection if no parasites were detected in the blood 30 days from the first drug administration, and the non-recrudescence dose (NRD) represents the lowest dose to achieve a cure.
The in vivo ED50 and ED90 of selected aminoguanidines was measured using a modified 4-day Peters test. Female CF1 mice from Charles River Laboratories were inoculated intravenously with approximately 2.5-5.0×10^4 parasitized erythrocytes (murine malaria P. yoelii, Kenya strain MR4 MRA-428) from a donor mouse (experiment day zero). On the following four days (experiment days 1-4), solutions of the test compounds in PEG-300 (or PEG-300 only for control mice) were administered by oral gavage once daily. […] Parasitemia of each mouse was determined by microscopic examination of Giemsa stained blood smears on day 5. ED50 and ED90 values were assessed by generating dose-response curves relative to untreated controls using Graphpad Prism (v. 8). Mice were considered cured of malarial infection if they maintained 0% parasitemia at experiment day 30. The procedures involved, together with all matters relating to the care, handling, and housing of the animals used in this study, were approved by the Portland VA Medical Center Institutional Animal Care and Use Committee.

[4] = tested on: P. falciparum Dd2; experiment: SYBR Green growth inhibition assay, P. falciparum Dd2; type: cell-based, Plasmodium falciparum; conditions: read-out: IC50 Dd2
Procedure: as §4, §2, §5

[5] = tested on: P. falciparum Tm90-C2B; experiment: SYBR Green growth inhibition assay, P. falciparum Tm90-C2B; type: cell-based, Plasmodium falciparum; conditions: read-out: IC50 Tm90-C2B
Procedure: as §4, §2, §5

[6] = tested on: P. falciparum strains; type: cell-based, Plasmodium falciparum
Procedure: as §1
All aminoguanidines synthesized were also evaluated against three multi-drug resistant P. falciparum strains (Dd2, Tm90-C2B, and A6) and for mammalian cell cytotoxicity.
as §4, §3

[7] = HepG2 cytotoxicity assay (resazurin); type: cell-based, human; conditions: human, HepG2 cells; HepG2, 24 hr drug, 24 hr recovery
Procedure: (§6) In this assay, HepG2 cells were incubated with test compounds for 24 hours, followed by a 24-hour recovery period and subsequent staining to evaluate for cytotoxic effects with resazurin. The ratio of the resulting HepG2 IC50 value to the P. falciparum D6 IC50 value can be considered an ‘in vitro therapeutic index,’ or IVTI.
(§7) Compounds were prepared as 10 mM stock solutions in DMSO. […] HepG2 cells were added to each well of flat bottom 96-well tissue culture plates at an initial density of 2×10^4 cells per well, and an initial volume of 160 μL complete medium per well. After an overnight incubation at 37° C. to adhere the cells to the culture plates, 40 μL drug solutions in complete medium were applied to each well at a final concentration range of 0 to 200 μM across each plate. Drugs were tested in triplicate or quadruplicate. The cells were incubated for 24 hours at 37° C. and 5% CO2 with the drug solutions, which were then aspirated and replaced with 200 μL per well of complete medium for an additional 24 hour incubation under the same conditions. To each well was added 20 μL of resazurin (Alamar Blue) in PBS buffer to a final concentration of 10 μM, and the plates were incubated for 3 hours. Fluorescence was measured at 560 nm excitation and 590 nm emission bands using a Spectramax iD3 plate reader. Fluorescence readings were normalized with respect to the untreated control wells and plotted against the logarithm of drug concentration.

[8] = tested on: P. falciparum Dd2 infected erythrocytes; experiment: SYBR Green assay adapted to 48, 72 or 96 hr incubation; type: cell-based; conditions: Plasmodium falciparum, DD2, Erythrocyte
Procedure: Many drugs have activity dependent on their exposure time in addition to concentration, and antimalarial potency is frequently stage-specific. To determine whether the aminoguanidines acted by a time-dependent mechanism against malaria parasites, the SYBR Green activity assay was adapted to include additional incubation intervals. Two potent aminoguanidines, 16 and 21, were incubated with P. falciparum Dd2 infected erythrocytes for 48, 72, or 96 hours (FIG. 3). […] A shorter incubation time allows for less parasite growth for all drug conditions, producing data with proportionally greater variability or ‘noise.’ Conversely, longer incubation times reduce noise in the resulting data.
Aminoguanidine activity appears to be driven primarily by drug concentration rather than by lengthening drug incubation time.
as §5

[9] = tested on: human hepatoma derived HepG2 cells; experiment: HepG2 cytotoxicity assay (resazurin); type: cell-based; conditions: for IC50: HepG2, 24 hr drug, 24 hr recovery
Procedure: as §6, §7

[10] = tested on: T. brucei; conditions: read-out: in vitro IC50; cited from earlier work
[11] = tested on: P. falciparum; conditions: P. falciparum in vitro, in words; cited from earlier work
[12] = tested on: T. cuzi; conditions: read-out: in vitro IC50; cited from earlier work
[13] = tested on: Leishmania donovani; conditions: read-out: in vitro IC50; cited from earlier work
[14] = Plasmodium falciparum, D6, Erythrocyte, 72 h
[15] = Plasmodium falciparum, DD2, 72 h
[16] = Plasmodium falciparum, TM90, 72 h

Compound: N#Cc1cc(/C=N/NC(=N)N/N=C/c2ccc(F)c(C#N)c2)ccc1F [Compound 1]
- IC50 [1, 14]: 0.004 µM
- IC50 ([2]; Plasmodium falciparum, 72 h): 0.014 µM
- cure in this model [3]: not curative
- P. yoelii ED90 [3]: 0.28 mg/kg/day
- P. yoelii NRD (non-recrudescence dose, cure dose) [3]: >25 mg/kg/day
- IC50 [4, 15]: 0.012 µM
- IC50 [5, 16]: 0.016 µM
- IC50 values against P. falciparum strains ([6]; in words): single-digit nanomolar
- IC50 at 24 h [7]: 8 µM

Compound: N=C(N/N=C/c1ccc(OC(F)(F)F)cc1)N/N=C/c1ccc(OC(F)(F)F)cc1 [Compound 16]
- IC50 [1, 14]: 0.039 µM
- IC50 ([2]; Plasmodium falciparum, 72 h): 0.052 µM
- P. yoelii ED50 [3]: 1.2 mg/kg/day
- P. yoelii ED90 [3]: 3.7 mg/kg/day
- P. yoelii NRD (non-recrudescence dose, cure dose) [3]: 12.5 mg/kg/day
- IC50 [4, 15]: 0.083 µM
- IC50 [5, 16]: 0.114 µM
- IC50 at 24 h [7]: 11 µM
- IC50 ([8]; 48 h, read-out: IC50 Dd2 48 hr): 0.41 µM
- IC50 ([8]; 72 h, read-out: IC50 Dd2 72 hr): 0.195 µM
- IC50 ([8]; 96 h, read-out: IC50 Dd2 96 hr): 0.192 µM

Compound: CCN(CC)CCCC(C)Nc1ccnc2cc(Cl)ccc12 (centres unmarked) [Chloroquine, reference compound]
- IC50 ([2]; Plasmodium falciparum, 72 h): 0.016 µM
- cure in this model [3]: not curative
- IC50 [4, 15]: 0.07 µM
- IC50 [5, 16]: 0.297 µM
- IC50 [9]: 181 µM

Compound: N=C(N/N=C/c1ccc(-n2cnnn2)cc1)N/N=C/c1ccc(-n2cnnn2)cc1 [Compound 35]
- IC50 [1, 14]: 0.838 µM
- IC50 ([2]; Plasmodium falciparum, 72 h): > 5 µM
- IC50 [4, 15]: > 5 µM
- IC50 [5, 16]: > 5 µM
- activity against all tested P. falciparum strains ([6]; D6, Dd2, Tm90-C2B, A6): inactive
- IC50 at 24 h [7]: > 200 µM

Compound: N=C(NN=Cc1ccc(C(=O)O)cc1)NN=Cc1ccc(C(=O)O)cc1 [Compound 29]
- IC50 ([1]; pan-sensitive strain, 72 hr, asynchronous cultures in human erythrocytes): > 5 µM
- IC50 ([2]; mutant line resistant to respiratory antagonists, 72 hr): > 5 µM
- IC50 ([4]; multi-drug resistant strain, 72 hr): > 5 µM
- IC50 ([5]; multi-drug resistant clinical isolate, also atovaquone resistant, 72 hr): > 5 µM
- activity against all tested P. falciparum strains [6]: inactive
- IC50 [9]: > 200 µM

Compound: N#Cc1cccc(/C=N/NC(=N)N/N=C/c2cccc(C#N)c2)c1 [Compound 21]
- IC50 [1, 14]: 0.007 µM
- IC50 ([2]; Plasmodium falciparum, 72 h): 0.024 µM
- P. yoelii ED50 [3]: 7.1 mg/kg/day
- P. yoelii ED90 [3]: 9.4 mg/kg/day
- P. yoelii NRD (non-recrudescence dose, cure dose) [3]: >25 mg/kg/day
- IC50 [4, 15]: 0.02 µM
- IC50 [5, 16]: 0.031 µM
- effect on Hep2G activity ([9]; concentrations as high as 200 μM): no measurable effect
- IC50 at 24 h [7]: 7 µM
- IC50 ([8]; 48 h, read-out: IC50 Dd2 48 hr): 0.031 µM
- IC50 ([8]; 72 h, read-out: IC50 Dd2 72 hr): 0.021 µM
- IC50 ([8]; 96 h, read-out: IC50 Dd2 96 hr): 0.022 µM

Compound: Cl.Cl.Cl.N=C(N)c1cccc(/C=N/N=C(\N)N/N=C/c2cccc(C(=N)N)c2)c1 [CGP 40215A]
- IC50 [10]: 20 µM
- IC50 value [11]: low micromolar
- IC50 [12]: 20 µM
- IC50 [13]: 18 µM

Compound: N=C(N/N=C/c1cccc(-n2cnnn2)c1)N/N=C/c1cccc(-n2cnnn2)c1 [Compound 34]
- IC50 [1, 14]: 1.65 µM
- IC50 ([2]; Plasmodium falciparum, 72 h): 4.79 µM
- IC50 [4, 15]: > 5 µM
- IC50 [5, 16]: > 5 µM
- activity against all tested P. falciparum strains ([6]; D6, Dd2, Tm90-C2B, A6): inactive
- IC50 at 24 h [7]: 107 µM
